Columns and labels:
B16F10 tumors = assay: B16F10 tumor growth in ovariectomized NSG mice; type: in vivo, mouse
Method: Tumor formation in these mice were induced with a single intradermal dose of 150 μg of 4-hydroxytamoxifen (4OHT). […] FIGS. 6A-6B and FIGS. 6E-6F are representative of two independent experiments. Data are expressed as mean t S.E.M. Significance was calculated using the Student's t test (FIG. 6C and FIG. 6H), log-rank test (FIG. 6D and FIG. 6G), and two-way ANOVA followed by Bonferroni's multiple correction (FIGS. 6A-6B, FIGS. 6E-6F, and FIG. 6I) (*p<0.05, *p<0.01, and ***<0.001).
Mice. C57BL/BJ, LysMCre (B6.129P2-Lyz2^tm1(cre)lfo/J) Pmel (B6.Cg-Thy1^a/Cy Tg(TcraTcrb)8Rest/J) mice were from Jackson Laboratories (Bar Harbor, ME). Age matched mice were used for all the studies. LysMCre mice were bred to Esr1^f/f mice to generate Esr1^f/f; LysMCre and littermate control LysMCre and Esr1^f/f mice. iBP (Braf^V600E/WT, Pten^f/fmTyrCreERT2) mice were generated by crossing breeders Braf^WT/WT/Pten^f/f, mTyrCreERT2 mice to BRAF^V600E, Pten^f/f mice. The mice were housed in secure animal facility cages in 12 hour light:dark cycles at temperature around 25° C. and 70% humidity. […]
Tumor models and cells. […] Tumors were measured thrice weekly using an electronic caliper. Tumor volumes were calculated by the formula V=L×(W×W)/2. For iBP mouse tumors, volumes were calculated by the formula V=L×B×H. For tumor growth rate studies mice were euthanized when the tumors reached a maximum size of 2000 mm^3.

[1] = system: WNT5A and TCF4 target genes; assay: Quantitative PCR of tumor infiltrating myeloid cells from iBP tumors; type: in vivo, mouse
Method: All target genes were normalized to Rplp0 and then siEsr1 (FIG. 14E) or DMSO (FIG. 14F) samples were normalized to siRNA control. Data are represented as mean±S.E.M. Significance was calculated by Student's t test (FIGS. 14C-14D) (*p<0.05, **p<0.01, and ***p<0.001).
Quantitative PCR of tumor Infiltrating myeloid cells. Tumor infiltrating myeloid cells were isolated from iBP tumors using a CD11b isolation kit (catalog #18970, StemCell Technologies). RNA was isolated using RNA Aqueous Micro kit (catalog #1931, Ambion) followed by cDNA synthesis using an iScript cDNA synthesis kit (Cat #170-7691). Quantitative amplification was performed using Sybr Green (Cat #1725124, Bio-Rad) and a CFX-384 Real Time PCR detection system. Primers used are listed below in TABLE 1.

iBP tumors = assay: iBP autochthonous melanoma mouse model (tumor growth, flow cytometry); type: in vivo; conditions: E2 vs placebo
Source text: Mice. C57BL/BJ, LysMCre (B6.129P2-Lyz2^tm1(cre)lfo/J) Pmel (B6.Cg-Thy1^a/Cy Tg(TcraTcrb)8Rest/J) mice were from Jackson Laboratories (Bar Harbor, ME). Age matched mice were used for all the studies. LysMCre mice were bred to Esr1^f/f mice to generate Esr1^f/f; LysMCre and littermate control LysMCre and Esr1^f/f mice. iBP (Braf^V600E/WT, Pten^f/fmTyrCreERT2) mice were generated by crossing breeders Braf^WT/WT/Pten^f/f, mTyrCreERT2 mice to BRAF^V600E, Pten^f/f mice. The mice were housed in secure animal facility cages in 12 hour light:dark cycles at temperature around 25° C. and 70% humidity. Mice had access to ad-libitum food and water. NSG (NOD.Cg-Prkd^scid Il2rg^tm1Wjl/SzJ) mice were from the Division of Laboratory Animal Resources (Duke University). The NSG animals were fed with a GL3 diet and were kept in pathogen free conditions.
Tumor models and cells. The mouse B16F10 and Yumm5.2 cell lines were purchased from American Type Culture Collection (ATCC, Manassas, VA). The mouse melanoma cell line BPD6 was established from iBP as described elsewhere (Zhao et al., Immunity 2018, 48, 147-160). B16F10 and BPD6 cells were maintained in Dulbecco's Modified Eagle's Medium (DMEM) supplemented with 8% fetal bovine serum (FBS), 0.1 mM non-essential amino acids (NEAA) and 1 mM sodium pyruvate. YuMM5.2 cells were maintained in DMEM/F12 media supplemented with 10% FBS. The cells were replated 3 times/week at a confluency of 1:10 and were kept in a 37° C. incubator at 5% CO2. For subcutaneous tumor models B16F10 (5×10^4 or 1×10^5), YuMM5.2 (5×10^5), and BPD6 (5×10^5) cells were injected into the right flank of the mice. For iBP mice, tumors were induced with a single intradermal dose of 4-hydroxytamoxifen in DMSO (150 μg/mouse). Tumors were measured thrice weekly using an electronic caliper. Tumor volumes were calculated by the formula V=L×(W×W)/2. For iBP mouse tumors, volumes were calculated by the formula V=L×B×H. For tumor growth rate studies mice were euthanized when the tumors reached a maximum size of 2000 mm^3.
Ovarlectomy and subcutaneous pellet Insertion. Ovariectomy was performed as previously described (Nelson et al., Science 2013, 342, 1094-1098). Eight days prior to tumor inoculation, 7 weeks old C57BL/6J or 5 weeks old (iBP) female mice were subjected to ovariectomy or sham surgery. Mice were anesthetized in an inhalation chamber (2% Isoflurane) and maintained in half the dose of isoflurane (1%) via nose cone throughout the surgical process. Prior to surgery, mice were administered a 5 mg/kg dose of carprofen subcutaneously. The area below the ribs was shaved with an electronic razor and the skin was sterilized by rubbing with betadine and alcohol (3× alternating). A horizontal incision was made through the skin above the ovary fat pad, followed by a vertical incision through the abdominal muscle wall. The ovary was externalized and removed using a cauterizing scissors (or returned if sham). Fat pad was replaced, and muscle walls were opposed and sutured (1-2 stitches). Following suturing, 1 drop of bupivacaine (0.25%) was added on top of the incision site. The skin was opposed, and a wound clip was placed on the incision site. This was repeated for the other ovary. The mouse was then removed from anesthesia and kept in a clean cage and monitored until conscious. The mice were monitored for recovery for 10 days.
Single cell isolation from tumors. Tumors were isolated, minced on a petri dish in media (DMEM+5% FBS), and then enzymatically digested by the addition of 100 μg/mL DNase I (D5025-150KU, Sigma-Aldrich) and 1 mg/mL collagenase (Collagenase A, Cat #10103586001, Sigma-Aldrich) for 30 mins-45 mins. For iBP models, isolated tumors were sliced into large chunks and subjected to mechanical digestion in a gentleMACS Dissociator for 30 seconds twice. […]

17β-estradiol [E2]
slower tumor growth kinetics imparted by ovariectomy (placebo vs E2) (B16F10 tumors): disappeared
genes in the WNT5A and TCF4 pathways ([1]; E2 compared to placebo): differentially regulated
expression of Vegfa, Tgm2 and Tspo and Stat1 ([1]; myeloid cells from E2 treated tumors): increased expression
tumor growth (iBP tumors; ovariectomized iBP mice): accelerated tumor growth
CD3+ T cell population, tumor-infiltrating (iBP tumors; flow cytometry): overall decrease
infiltration of immune cells (CD45+) (iBP tumors; flow cytometry): not impacted by treatment
number of monocytes (iBP tumors; flow cytometry): trend was observed towards an increase
ratio of intratumoral M1 (MHCII^hi CD206−) to M2 (MHCII^lo CD206+/hi) macrophages (iBP tumors; flow cytometry): decreases
total number of F480+ macrophages (iBP tumors; flow cytometry): remaining unchanged
CD4+ T cells, tumor-infiltrating (iBP tumors; flow cytometry, FIGS. 16B-16C show B16F10 and YuMM5.2): no significant changes

— patent publication US20240398831A1, “COMPOSITIONS COMPRISING SMALL MOLECULE REGULATORS OF TUMOR IMMUNITY AND METHODS OF USING SAME” (Duke University, priority 2021, published 2024)
